According to patent publication US20210269815A1, “GENETICALLY MODIFIED PLANT AND USES THEREOF” (IST AUSTRIA, priority 2018, published 2021):

Columns and labels:
Assay type in all cases: in vivo, Arabidopsis
SYAC1 promoter = assay: pSYAC1:GUS / pSYAC1:nlsGFP reporter expression in roots
Protocol: The syac1-1 (salk_151420C, Col-0, KAN^R) and syac1-2 (salk_151662B, Col-0, KAN^R) T-DNA insertion lines were obtained from the Salk Institute. The syac1-3 (GABI-KAT 760F05, Col-0, SUL^R) and syac1-4 (GABI-KAT 961C03, Col-0, SUL^R) T-DNA insertion lines were obtained from the GABI KAT seed collection. The syac1-5 CRISPR line was prepared in collaboration with the VBCF Protein Technologies Facility (www.vbcf.ac.at) (see below). The genetically modified fluorescent-protein marker lines in Col-0 background have been described elsewhere: mCherry tagged wave line 6, 9, 13, 18, 25, 29, 34, 127, 129, 131, 138 (Geldner et al., 2009, Plant J. 59, 169-178), SYP61:SYP61-CFP (Drakakaki et al., 2012, Cell Res. 22, 413-424). The echidna mutant has been described in (Gendre et al., 2011, PNAS 108, 8048-8053) and yip4a-2 yip4b-1 in (Gendre et al., 2013, The Plant Cell 25, 2633-2646). Seeds of Arabidopsis were plated and grown on square plates with solid half strength Murashige and Skoog (MS) medium (Duchefa) supplemented with 0.5 g L^−1 MES, 10 g L^−1 Sucrose, 1% agar and pH adjusted to 5.9. The plates were incubated at 4° C. for 48 h to synchronize seed germination and then vertically grown under a 16:8 h day/night cycle photoperiod at 21° C. Cytokinin and auxin treatments were performed with the N6-benzyladenine cytokinin derivative (Sigma) and Naphthaleneacetic acid (Sigma), respectively. Short treatments (6 hours) for GUS/GFP expression were performed with 10 μM cytokinin and 1 μM auxin (unless indicated differently). For root growth transient assay 0.1 μM cytokinin and 0.05 μM auxin was used. Estradiol treatment was performed with β-Estradiol (Sigma).
For promoter analysis of SYAC1, an upstream sequence of 2522 bp was amplified by PCR and introduced into the pDONRP4-P1R entry vector. Then transcriptional lines (pSYAC1:GUS, pSYAC1:nlsGFP) were created: for pSYAC1:GUS, an LR reaction with SYAC1 promoter in pDONORP4-P1R, pEN-L1-S-L2,0 and pK7m24GW,0 vectors was performed. For pSYAC1:nlsGFP line, an LR reaction with SYAC1 promoter in pDONORP4-P1R, pEN-L1-NF-L2,0 and pB7m24GW,0 was performed. […]

[1] = tested on: root tip of wild type control plants; assay: Effect of excess copper on the primary root of seedlings grown on agar; settings: 5 days on normal media, then transferred to media containing 50 μM CuSO4
Protocol: Plants were grown for 5 days on normal AM+ media and then transferred to media containing 50 μM CuSO4.

SYAC1 expression = assay: Genome wide transcriptome profiling of roots exposed to auxin, cytokinin and both hormones; settings: 3 hours of treatment, 1 μM auxin, 10 μM cytokinin
Protocol: The syac1-1 (salk_151420C, Col-0, KAN^R) and syac1-2 (salk_151662B, Col-0, KAN^R) T-DNA insertion lines were obtained from the Salk Institute. The syac1-3 (GABI-KAT 760F05, Col-0, SUL^R) and syac1-4 (GABI-KAT 961C03, Col-0, SUL^R) T-DNA insertion lines were obtained from the GABI KAT seed collection. The syac1-5 CRISPR line was prepared in collaboration with the VBCF Protein Technologies Facility (www.vbcf.ac.at) (see below). The genetically modified fluorescent-protein marker lines in Col-0 background have been described elsewhere: mCherry tagged wave line 6, 9, 13, 18, 25, 29, 34, 127, 129, 131, 138 (Geldner et al., 2009, Plant J. 59, 169-178), SYP61:SYP61-CFP (Drakakaki et al., 2012, Cell Res. 22, 413-424). The echidna mutant has been described in (Gendre et al., 2011, PNAS 108, 8048-8053) and yip4a-2 yip4b-1 in (Gendre et al., 2013, The Plant Cell 25, 2633-2646). […]
To search for novel molecular components and mechanisms of auxin-cytokinin cross-talk, genome wide transcriptome profiling of roots exposed to auxin, cytokinin and both hormones simultaneously, was performed. […] This SYAC1 expression profile in roots was further validated by quantitative real-time (RT-qPCR) (FIG. 2A). […]

For NC1(C(=O)O)CC1 [ACC, 1-aminocyclopropane-1-carboxylic acid], which “enhancement of pSYAC1:GUS expression” value (SYAC1 promoter; roots treated with ACC only or in combination with cytokinin, auxin or both) is on record?
The value was “No enhancement”.

With O=S(=O)([O-])[O-].[Cu+2] [CuSO4] as the molecule, how does the “SYAC1 promoter-driven GUS expression in reporter lines” value (SYAC1 promoter; 50 μM CuSO4 in ½MS plus Agar substrate) read?
Its value is “able to trigger”.

And the “swelling of cells at the root tip” value [1]?
The value was “trigger swelling of cells at the root tip”.

With O=C(O)Cc1cccc2ccccc12 [auxin, Naphthaleneacetic acid] as the molecule, how does the “SYAC1 expression compared to an untreated control” value (SYAC1 expression) read?
The value was 2.47±0.20.

For c1ccc(CNc2ncnc3nc[nH]c23)cc1 [cytokinin, N6-benzyladenine], which “SYAC1 expression compared to an untreated control” value (SYAC1 expression) is on record?
Its value is 1.53±0.19.

What about the “pSYAC1 reporter signal (pSYAC1:GUS, pSYAC1:nlsGFP)” value (SYAC1 promoter; roots, 6 hours exposure) of the same molecule?
The value was “enhanced reporter signal in the quiescent center (QC) and columella initials (CI)”.
